Experiment: Human HepG2 cell viability assay in 384 well format
Format: toxicity, cell-based
Design: dose 125 nL, time 70.5 hour; concentration not given beside the values
Details: HepG2 cells, read-out: Inhibition
With CCCn1ncc(CN(CCN(C)C)Cc2ccsc2)c1C the cytotoxicity at 70.5 h was 31.8%.
In the case of CC(C)N(Cc1ccccn1)C(=O)CCOc1cccc(F)c1, the cytotoxicity at 70.5 h is reported as -4.61%.
With NC(=O)N1CCCN(C2CCc3ccc(F)cc32)CC1 (configuration not stated) the cytotoxicity at 70.5 h was -1.61%.
c1cc(C2CCN(c3cncnc3)CC2)ccn1 gave a cytotoxicity at 70.5 h of 1.76%.
Molecule c1cncc(CN(Cc2ccc3c(c2)OCCO3)CC2CCCO2)c1 (configuration not stated) has a cytotoxicity at 70.5 h of 25.2%.
With Cc1cccc(-c2noc(CN3CC(n4cccn4)C3)n2)c1 the cytotoxicity at 70.5 h was -8.11%.
In the case of CC(C)(C)OCC1CN(CC2CC2)S(=O)(=O)c2cnccc2O1 (configuration not stated), the cytotoxicity at 70.5 h is reported as -4.79%.
CN(C)C(=O)Cc1ccccc1NCc1cc(C#N)ccc1F gave a cytotoxicity at 70.5 h of -2.64%.
For Cc1cc(N2CCC3(CCCN(CCO)C3=O)C2)nc2ccccc12 (configuration not stated), the cytotoxicity at 70.5 h was -26.3%.
With CN(C)C(=O)CCC1CCCN(Cc2ccc(-c3cccnc3)cc2)C1 (configuration not stated) the cytotoxicity at 70.5 h was -10.4%.
For COCC(O)CN(C)C(=O)NCc1ccc(S(C)(=O)=O)cc1 (configuration not stated), the cytotoxicity at 70.5 h was -106%.
In the case of COc1ccc(OC)c(-c2nc(CN(C)Cc3noc(C)n3)c(C)o2)c1, the cytotoxicity at 70.5 h is reported as -21.2%.
Work on NC(=O)CNC(=O)c1ccc(CNCc2ccc(Cl)cc2Cl)cc1 yielded a cytotoxicity at 70.5 h of -28%.
For Cc1cc(C(=O)NCCN2CCCCC2C)nn1C(C)(C)C (configuration not stated), the cytotoxicity at 70.5 h was -10.9%.
In the case of CCC(CC)NC(=O)Cn1cc(C(N)=O)c(-c2ccccc2)n1, the cytotoxicity at 70.5 h is reported as 17.3%.
CC1(C)CNC(=O)c2nc(-c3n[nH]c(=O)[nH]3)[nH]c2C1 showed a cytotoxicity at 70.5 h of -5.75%.
For Cc1ccc(N2CC[C@@H]3[C@@H]2CCN3C(=O)c2cscn2)nn1, the cytotoxicity at 70.5 h was -4.17%.
CN(CC(=O)NC(C)(C#N)C1CC1)Cc1nnc(C2CC2)n1C (configuration not stated) gave a cytotoxicity at 70.5 h of 1.7%.
O=C(Cc1cccs1)NS(=O)(=O)c1cccc2cnccc12 showed a cytotoxicity at 70.5 h of -116%.
CCOCC(=O)Nc1nccn1Cc1ccc(Br)cc1 gave a cytotoxicity at 70.5 h of -5.58%.
For Cc1csc(C(Cc2ccsc2)NC(=O)C2CCN(S(C)(=O)=O)CC2)n1 (configuration not stated), the cytotoxicity at 70.5 h was -10%.
CC(C)SCC(=O)NCc1cc2n(n1)CCCN(C1CCCCC1)C2 gave a cytotoxicity at 70.5 h of 25.3%.
Cc1cc(C)n(-c2nc(C(=O)NCCN3CCC(C)CC3)cs2)n1 gave a cytotoxicity at 70.5 h of -5.84%.
COC(=O)c1ccc(CNC(C)(C)c2ccccc2OC)o1 gave a cytotoxicity at 70.5 h of -6.94%.
CC(C)CNC(=O)c1cc2c(s1)CCN2Cc1cccnc1 showed a cytotoxicity at 70.5 h of -1.22%.
Work on COc1ccc(CN2CCC(c3cc(O)nc(C)n3)C2)c(OC)c1 (configuration not stated) yielded a cytotoxicity at 70.5 h of -3.26%.
Molecule Cn1ccnc1CN1CCN(CC(=O)NCC(F)(F)F)CC1 has a cytotoxicity at 70.5 h of -10.6%.
Work on CC(CO)NC(=O)c1ccc(NCc2ccccc2)cc1 (configuration not stated) yielded a cytotoxicity at 70.5 h of -7%.
For CC(C)CN1CCC(c2nnc(CN3CCCC3)n2C2CC2)CC1, the cytotoxicity at 70.5 h was -6.17%.
In the case of Cn1c(=O)[nH]c(=O)n2c(CC(=O)Nc3ccccc3)cnc12, the cytotoxicity at 70.5 h is reported as -15.7%.
c1cnc(NC2COC3(CCN(Cc4nccs4)CC3)C2)cn1 (configuration not stated) gave a cytotoxicity at 70.5 h of -8.19%.
NC(=O)c1cccc(OCC(=O)NS(=O)(=O)c2ccc3c(c2)CCC3)c1 showed a cytotoxicity at 70.5 h of -0.191%.
Cc1ccc(CNCc2c[nH]nc2C(C)(C)C)c(OC2CCOC2)c1 (configuration not stated) showed a cytotoxicity at 70.5 h of -5.05%.
Work on Cc1cccc(CS(=O)(=O)Cc2ccn(C)c(=O)c2)c1 yielded a cytotoxicity at 70.5 h of -12.8%.
Molecule CN(CC1Cc2ccccc2CN1C)C(=O)Cc1cccs1 (configuration not stated) has a cytotoxicity at 70.5 h of -6.46%.
With CN1CCC(NC(=O)NCCNc2ccccn2)CC1 the cytotoxicity at 70.5 h was -13.1%.
Work on N#Cc1cccc(CN2CC[C@@H]3[C@@H]2CC(=O)N3CCN2CCCC2)c1 yielded a cytotoxicity at 70.5 h of -9.81%.
Cc1cc(=O)n(CCNS(=O)(=O)c2ccc(F)c(Cl)c2)cn1 showed a cytotoxicity at 70.5 h of -4.51%.
CCC(CC)NC(=O)CN1CCSCC1 gave a cytotoxicity at 70.5 h of 3.72%.
Work on O=C(N1CCCCC1)N1CCCC(c2ncncc2-c2ccncc2)C1 (configuration not stated) yielded a cytotoxicity at 70.5 h of -8.3%.
CCOc1cc(C(=O)N2CCCC(c3nc(C)c(C)s3)C2)ccn1 (configuration not stated) gave a cytotoxicity at 70.5 h of 3.48%.
In the case of Cc1nc(C)n(CC2CCCN2CCc2cccs2)n1 (configuration not stated), the cytotoxicity at 70.5 h is reported as 39.6%.
Cn1cc(C[C@H]2[C@H](O)CCN2Cc2ccncc2)cn1 gave a cytotoxicity at 70.5 h of -5.7%.
CC1(CNS(=O)(=O)c2cccc(C(=O)N3CCSCC3)c2)COC1 showed a cytotoxicity at 70.5 h of -6.9%.
Molecule N#CCCN(CCC#N)C(=O)COC1CCCCC1 has a cytotoxicity at 70.5 h of -6.88%.
COc1ncc(-c2nccn2C(C)CCn2cccn2)cn1 (configuration not stated) showed a cytotoxicity at 70.5 h of 2.54%.
Molecule O=C(c1cc2c(s1)CCC2)N1CCCC1Cn1cccn1 (configuration not stated) has a cytotoxicity at 70.5 h of -1.69%.
With CC(C)(C)n1ncc2c(=O)[nH]c(N3CCN(CCO)CC3)nc21 the cytotoxicity at 70.5 h was -1.33%.
CC(C)c1noc(CN(Cc2ccc(F)cc2)C2CC2)n1 gave a cytotoxicity at 70.5 h of -8.41%.
Molecule O=C1COC2(CCN(Cc3nccs3)CC2)CN1c1ccccc1 has a cytotoxicity at 70.5 h of 5.28%.
For CCS(=O)(=O)N1CCCC2(COCCN(c3nnc(C)o3)C2)C1 (configuration not stated), the cytotoxicity at 70.5 h was -1.84%.
With CSc1ccc(CNc2n[nH]c(C)n2)cc1 the cytotoxicity at 70.5 h was 44.9%.
Molecule CCO[C@@H]1CCN(C(=O)c2ccc[nH]2)[C@@H]1Cc1cccnc1 has a cytotoxicity at 70.5 h of -6.51%.
Molecule CCN1C(=O)CCC12CCCN(Cc1nccs1)CC2 (configuration not stated) has a cytotoxicity at 70.5 h of -8.57%.
With Cc1nc(C)c(C)c(N2CCC(O)(c3ccc(F)cc3)CC2)n1 the cytotoxicity at 70.5 h was -6.02%.
Cc1ccccc1C(=O)NCCC(=O)NS(=O)(=O)c1cccnc1 gave a cytotoxicity at 70.5 h of 19.3%.
In the case of CCc1cc(O)n2nc(C3CCN(C(=O)c4cccnc4)CC3)cc2n1, the cytotoxicity at 70.5 h is reported as 21.2%.
In the case of Cc1nc(N2CCCC2)ncc1-c1cc(O)nc(N2CCN(C)CC2)n1, the cytotoxicity at 70.5 h is reported as -2.96%.
Work on Cn1nnc2c1C(COCC1CC1)CN(C(=O)CC1=CCCCC1)C2 (configuration not stated) yielded a cytotoxicity at 70.5 h of -2%.
Molecule Cn1cc(S(=O)(=O)N(Cc2ccc(F)cc2F)C2CC2)cc1C(N)=O has a cytotoxicity at 70.5 h of -7.08%.
Work on CCC1=N[C@@]2(CC[C@@H]3CN(Cc4ccc(C)cc4)C[C@@H]32)C(=O)N1C yielded a cytotoxicity at 70.5 h of -2.71%.
Cc1nn(C)cc1C(=O)NCc1cc(N(C)C)nc2ccccc12 gave a cytotoxicity at 70.5 h of -0.83%.
In the case of COCCN1CCO[C@@H]2CN(Cc3ccccn3)C[C@@H]2C1, the cytotoxicity at 70.5 h is reported as 2.26%.
Work on Cc1ccnc(N2CCN(Cc3ccccc3)CC(O)C2)c1 (configuration not stated) yielded a cytotoxicity at 70.5 h of -3.12%.
Cc1nc(C)n(CC2CCCN(c3ncnc4c3CCC4)C2)n1 (configuration not stated) showed a cytotoxicity at 70.5 h of 26.1%.
For COc1ccc(C2CCCCCN2Cc2cn(C)nc2C)cc1 (configuration not stated), the cytotoxicity at 70.5 h was -3.41%.
Molecule Cc1nn(-c2ccccc2)cc1C(=O)N1CCCC(n2ccnc2)C1 (configuration not stated) has a cytotoxicity at 70.5 h of -0.753%.
With Cc1cc(N(C)C)nc(C2COCCN2Cc2cc(C)on2)n1 (configuration not stated) the cytotoxicity at 70.5 h was -7.49%.
With Cc1nc(NC2CCCC2)cc(C2CCN2C(=O)c2ccccc2)n1 (configuration not stated) the cytotoxicity at 70.5 h was 14.2%.
O=C(NCC1(O)CCSC1)c1cccc(-n2cccn2)c1 (configuration not stated) gave a cytotoxicity at 70.5 h of -10.4%.
Work on Cc1cnccc1N1CCCN(C(=O)CCCc2cn[nH]c2)CC1 yielded a cytotoxicity at 70.5 h of 2.95%.
With Cc1nn(C)c(Cl)c1C(=O)NCc1cccnc1N1CCOCC1 the cytotoxicity at 70.5 h was -11.8%.
CCc1nnc(CN2CCC(C3CCCCCN3C(=O)C3CC3)CC2)o1 (configuration not stated) gave a cytotoxicity at 70.5 h of -1.17%.
Cc1ccccc1N1CCN(C(=O)c2ncc(F)cc2F)C(C)C1 (configuration not stated) gave a cytotoxicity at 70.5 h of -3.38%.
With O=C(C1=COCCO1)N1CC(Oc2nc3c(C(F)(F)F)cccc3s2)C1 the cytotoxicity at 70.5 h was 10.3%.
Molecule CC(C)CN1CC2(CCN(C(=O)c3cn4cccnc4n3)CC2)CC1=O has a cytotoxicity at 70.5 h of -17.9%.
Cc1cc(C(=O)NC(COCC(C)C)c2ccco2)no1 (configuration not stated) showed a cytotoxicity at 70.5 h of -1.3%.
For Cn1cc(NC(=O)NC2CCCN(c3ccccc3Cl)C2=O)cn1 (configuration not stated), the cytotoxicity at 70.5 h was -5.63%.
Molecule COc1ccc2[nH]cc(C3CCN(CCC(N)=O)CC3)c2c1 has a cytotoxicity at 70.5 h of -11.2%.
Molecule CC(C)c1ncc(C(=O)N(C)c2ccc(Br)cn2)s1 has a cytotoxicity at 70.5 h of 5.45%.
For Cc1noc(C2CCC3(CCN(C(=O)c4ncccn4)CC3)O2)n1 (configuration not stated), the cytotoxicity at 70.5 h was 2.54%.
Molecule COCc1cc(N2CCOC(c3ccc(Cl)c(Cl)c3)C2)ncn1 (configuration not stated) has a cytotoxicity at 70.5 h of -12.1%.

— ChEMBL document CHEMBL3507680, “University of Dundee, Gates Library screen for HepG2 cell viability”
